# From patent US11090304B2 (Amgen Inc., priority 2018, dated 2021)
# Target: GDP-bound KRAS protein (aa 1-169), containing both G12C and C118A amino acid substitutions (Homo sapiens, UniProt P01116, C118A/G12C)
# Assay: Coupled nucleotide exchange assay (SOS-mediated, AlphaScreen)
# Format: biochemical
# Conditions: 5 min compound pre-incubation
# GDP-bound KRAS protein (aa 1-169), containing both G12C and C118A amino acid substitutions, sequence (P01116 1-169 isoform P01116-2 G12C/C118A): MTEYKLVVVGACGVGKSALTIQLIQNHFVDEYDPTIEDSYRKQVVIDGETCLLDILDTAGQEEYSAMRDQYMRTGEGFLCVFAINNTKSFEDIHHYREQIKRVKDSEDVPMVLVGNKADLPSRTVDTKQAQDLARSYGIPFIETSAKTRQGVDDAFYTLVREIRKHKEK
row,Compound,Coupled exchange IC50 (5 min)
1,"C=CC(=O)N1CCN(c2nc(=O)n(-c3ccccc3C(C)C)c3nc(C4=CCCCC4)c(Cl)cc23)[C@@H](C)C1 (single isomer, unassigned) [Example 54-75-2]",10.6 | nda μM
2,"C=CC(=O)N1CCN(c2nc(=O)n(-c3ccccc3C(C)C)c3nc(-c4ccc(F)cc4O)c(Cl)cc23)[C@@H](C)C1 (single isomer, unassigned) [Example 54-77-1]",2.71 | nda μM
3,"C=CC(=O)N1CCN(c2nc(=O)n(-c3ccccc3C(C)C)c3nc(-c4cc(F)ccc4O)c(Cl)cc23)[C@@H](C)C1 (single isomer, unassigned) [Example 54-78-1]",7.26 | nda μM
4,"C=CC(=O)N1CCN(c2nc(=O)n(-c3ccccc3C(C)C)c3nc(-c4cc(O)ccc4F)c(Cl)cc23)[C@@H](C)C1 (single isomer, unassigned) [Example 54-88-2]",1.36 | nda μM
5,"C=CC(=O)N1CCN(c2nc(=O)n(-c3ccccc3C3(C)CC3)c3nc(-c4ccccc4F)c(Cl)cc23)[C@@H](C)C1 (single isomer, unassigned) [Example 54-99-1]",1.52 | nda μM
6,"C=CC(=O)N1CCN(c2nc(=O)n(-c3cccnc3C(C)(C)C)c3nc(-c4c(O)cccc4F)c(Cl)cc23)[C@@H](C)C1 (single isomer, unassigned) [Example 54-103-2]",1.48 | nda μM
7,"C=CC(=O)N1CCN(c2nc(=O)n(-c3c(C(C)C)cccc3N(C)C)c3nc(-c4ccccc4F)c(Cl)cc23)[C@@H](C)C1 (single isomer, unassigned) [Example 54-104-1]",0.743 | nda μM
8,"C=CC(=O)N1CCN(c2nc(=O)n(-c3c(OC)ncnc3C(C)C)c3nc(-c4ccccc4F)c(Cl)cc23)[C@@H](C)C1 (single isomer, unassigned) [Example 54-107-1]",0.731 | nda μM
9,"C=CC(=O)N1CCN(c2nc(=O)n(-c3cncnc3C(C)(C)C)c3nc(-c4ccccc4F)c(Cl)cc23)[C@@H](C)C1 (single isomer, unassigned) [Example 54-110-1]",7.71 | nda μM
10,"C=CC(=O)N1CCN(c2nc(=O)n(-c3cccnc3C(C)(C)C)c3nc(-c4ccccc4F)c(Cl)cc23)[C@@H](C)C1 (single isomer, unassigned) [Example 54-112-2]",5.02 | nda μM
11,"C=CC(=O)N1CCN(c2nc(=O)n(-c3c(C)nc(C)nc3C(C)C)c3nc(-c4c(O)cccc4F)c(Cl)cc23)[C@@H](C)C1 (single isomer, unassigned) [Example 55-4-2]",0.642 | nda μM
12,"C=CC(=O)N1CCN(c2nc(=O)n(-c3c(C)ccnc3N(C)C)c3nc(-c4ccccc4F)c(Cl)cc23)[C@@H](C)C1 (single isomer, unassigned) [Example 55-7-1]",0.863 | nda μM
13,"C=CC(=O)N1CCN(c2nc(=O)n(-c3c(C)ncnc3C(C)C)c3nc(-c4ccccc4F)c(Cl)cc23)[C@@H](C)C1 (single isomer, unassigned) [Example 55-13-1]",0.722 | nda μM
14,"C=CC(=O)N1CCN(c2nc(=O)n(-c3c(C)cc(N(C)C)cc3C(C)C)c3nc(-c4ccccc4F)c(Cl)cc23)[C@@H](C)C1 (single isomer, unassigned) [Example 55-16-1]",1.05 | nda μM
15,"C=CC(=O)N1CCN(c2nc(=O)n(-c3nccnc3C(C)(C)C)c3nc(-c4c(O)cccc4F)c(Cl)cc23)[C@@H](C)C1 (single isomer, unassigned) [Example 55-23-1]",18.55 | nda μM
16,"C=CC(=O)N1CCN(c2nc(=O)n(-c3c(O)cccc3C(C)C)c3nc(-c4ccccc4F)c(Cl)cc23)[C@@H](C)C1 (single isomer, unassigned) [Example 55-26-1]",36.9 | nda μM
17,"C=CC(=O)N1CCN(c2nc(=O)n(-c3c(C)cnn3C(C)(C)C)c3nc(-c4ccccc4F)c(Cl)cc23)[C@@H](C)C1 (single isomer, unassigned) [Example 55-38-1]",0.534 | nda μM
18,"C=CC(=O)N1CCN(c2nc(=O)n(-c3c(C)ncnc3C(C)C)c3nc(-c4cc(F)ccc4F)c(Cl)cc23)[C@@H](C)C1 (single isomer, unassigned) [Example 55-39-1]",1.795 | nda μM
19,"C=CC(=O)N1CCN(c2nc(=O)n(-c3c(C)ncnc3C(C)C)c3nc(-c4cc(C)ccc4F)c(Cl)cc23)[C@@H](C)C1 (single isomer, unassigned) [Example 55-40-1]",1.02 | nda μM
20,"C=CC(=O)N1CCN(c2nc(=O)n(-c3c(CO)cccc3C(C)C)c3nc(-c4ccccc4F)c(Cl)cc23)[C@@H](C)C1 (single isomer, unassigned) [Example 55-43-1]",2.87 | nda μM
21,"C=CC(=O)N1CCN(c2nc(=O)n(-c3ccccc3S(F)(F)(F)(F)F)c3nc(-c4c(O)cccc4F)c(Cl)cc23)[C@@H](C)C1 (single isomer, unassigned) [Example 56-1-1]",5.29 | nda μM
22,"C=CC(=O)N1CCN(c2nc(=O)n(-c3c(C)ccnc3CC)c3nc(-c4c(O)cccc4F)c(F)cc23)[C@@H](C)C1 (single isomer, unassigned) [Example 57-1-2]",2.47 | nda μM
23,"C=CC(=O)N1CCN(c2nc(=O)n(-c3ccccc3C(C)C)c3nc(-c4ccccc4F)c(F)cc23)[C@@H](C)C1 (single isomer, unassigned) [Example 57-7-1]",8.89 | nda μM
24,"C=CC(=O)N1CCN(c2nc(=O)n(-c3c(C)cccc3CC)c3nc(-c4ccccc4F)c(F)cc23)[C@@H](C)C1 (single isomer, unassigned) [Example 57-13-1]",1.46 | nda μM
25,"C=CC(=O)N1CCN(c2nc(=O)n(-c3c(C)cccc3CC)c3nc(-c4ccccc4F)c(F)cc23)[C@@H](C)C1 (single isomer, unassigned) [Example 57-13-2]",8.13 | nda μM
26,"C=CC(=O)N1CCN(c2nc(=O)n(-c3c(C)cccc3CC)c3nc(-c4c(O)cccc4F)c(F)cc23)[C@@H](C)C1 (single isomer, unassigned) [Example 57-14-2]",1.8 | nda μM
27,"C=CC(=O)N1CCN(c2nc(=O)n(-c3c(C)ccnc3CC)c3nc(-c4ccccc4F)c(F)cc23)[C@@H](C)C1 (single isomer, unassigned) [Example 57-16-1]",1.76 | nda μM
28,"C=CC(=O)N1CCN(c2nc(=O)n(-c3c(C)ccnc3CC)c3nc(-c4ccccc4F)c(F)cc23)[C@@H](C)C1 (single isomer, unassigned) [Example 57-16-2]",7.56 | nda μM
29,"C=CC(=O)N1CCN(c2nc(=O)n(-c3c(C)cccc3C(C)(C)C)c3nc(-c4c(O)cccc4F)c(F)cc23)[C@@H](C)C1 (single isomer, unassigned) [Example 57-17-2]",3.9 | nda μM
